Laboratory results as given in PMC9477273 (2022).

Test system: biosensor 566229815 (RNA, ribozyme) GGGAAACAAACAAAGCUGUCACUGGAUUUCUUGACGAAUGUGCAGGAAACGGCUCCGGUCUGAUGAGUUCGUGGCGGGACGAAACAGCAAAAAGAAAAA
Test: CleaveSeq ribozyme cleavage, deconvolution of 256-compound mixtures
Conditions: sub-mM free Mg2+ (chelated by 9 mM rNTPs); 2 μM each compound in mixtures; ligand inferred ("highly likely"); 37 °C

SMILES: C=CC[n+]1c(C=C2C=CC=CN2C)sc2ccccc21
- fold change of cleavage: > 2 fold
